Measured values from patent US11116726B2, “Echinomycin formulation, method of making and method of use thereof” (CHILDREN'S RESEARCH INSTITUTE, CHILDREN'S NATIONAL MEDICAL …, priority 2015, dated 2021).

Legend:
[1] = Liposomal echinomycin toxicity in mice (body weight, survival); format: in vivo, NSG mice; conditions: 1 mg/kg single i.v.
Description: FIG. 4. Comparison of toxicity and efficacy for liposomal vs. free echinomycin. (Panel A) Body weight change in female NSG mice receiving a therapeutic cycle of liposomal echinomycin, PBS echinomycin (20% DMSO in PBS), or equivalent dosage of empty liposomal vehicle. Mice were treated with 250 μg/kg of liposomal (n=7) or free (n=7) echinomycin, or vehicle equivalent (n=4), by i.v. once every other day for a total of 3 doses). (Panel B) Survival of NSG mice administered single i.v. injection of 1 mg/kg liposomal or free echinomycin, or equivalent dosage of empty liposomal vehicle.
To test the toxicity of liposomal echinomycin in mice, a therapeutic cycle of echinomycin was administered at a dose of 250 μg/kg, (liposomal-formulated, non-liposomal-formulated, or equivalent dosage of empty liposomal vehicle) by i.v. injection, every other day for a total of 3 doses. Body weights of the mice were monitored throughout this period.

[2] = Intravenous tolerability / LD50 in mice; conditions: mouse, in vivo
[3] = Plasma pharmacokinetics by mass spectrometry after single i.v. injection; format: in vivo, mice; conditions: 0.1 mg/kg single i.v.
Description: FIG. 5. Comparison of pharmacokinetics for liposomal vs. free echinomycin. Serum plasma levels of echinomycin detected by MS following single dose i.v. administration of 0.1 mg/kg liposomal echinomycin or free echinomycin
PEG shields liposomes from rapid uptake by the RES and provides steric stabilization to the liposome particles. To measure the prolonged circulation of liposomal echinomycin in the bloodstream compared to free echinomycin, the pharmacokinetics of both formulations were evaluated by detecting echinomycin levels in the plasma by mass spectrometry following single i.v. injections of 0.1 mg/kg of liposomal echinomycin or free echinomycin in mice (FIG. 5).

[4] = Echinomycin concentration in SUM 159 breast tumor tissue after single i.v. injection; format: in vivo, NSG mice; conditions: 0.1 mg/kg single i.v., SUM 159 tumor
Description: FIG. 6. Accumulation of Echinomycin in tumor. Concentration of echinomycin in breast tumor SUM 159 following single dose i.v. injection (0.1 mg/kg) of liposomal and conventionally formulated echinomycin. n=3/time-point.
In contrast, administration of liposomal echinomycin (Lipo-EM) at the same dose of 0.1 mg/kg achieved a tissue concentration >5 ng/g, which was prolonged for more than 10 hrs following administration (FIG. 6). More importantly, peak drug levels in the liposomal echinomycin-treated group were approximately 6-fold higher than those treated with free echinomycin.

human ETP-ALL-1 cells = test: ETP-ALL xenograft model, human CD45+ cells in blood by FACS; format: in vivo, NSG mice; conditions: echinomycin in PBS 0.1 mg/kg x15 doses; Lipo-EM 0.35 mg/kg x10 doses; blood days 34, 50, 65
Description: FIG. 8. Liposomal echinomycin eliminates human ETP-ALL cells in a xenograft mouse model. (Panel A) Dosing regimen of liposomal echinomycin treatment for ETP-ALL humanized mice for data in panel B. Day 0 indicates day of transplantation with human ETP-ALL-1 cells. Green arrows represent one individual liposomal echinomycin injection (0.35 mg/kg/injection via i.v.). Red arrows indicate blood tests. (Panel B) NSG mice with 1.3 Gys irradiated were given i.v. injection of 1×10^6 human ETP-ALL-1 cells. Human CD45^+ cells in PBMC of recipients were detected by FACS analysis at day 34 after transplantation. The percentage of human CD45^+ in PBMC of recipient mice before treatment (Day 34) and after treatment (Day 42, 48, 56, and 64) of mice (vehicle and liposomal echinomycin treatment) was analyzed by FACS analysis. […] The percentage of human CD45^+ in PBMC of recipients after echinomycin treatment (Day 34, 50, and 65) of mice was analyzed by FACS analysis.
To test whether administration of liposomal echinomycin (Lipo-EM) could eliminate human ETP-ALL cells in vivo, Lipo-EM was administered to xenografted ETP-ALL NSG mice according to the dosing schedule outlined in FIG. 8, panel A. Briefly, 1×10^6 ETP ALL-1 cells were transplanted via i.v. injection into 1.3 Gys irradiated NSG mice. […] The percentage of human ETP ALL-1 cells was monitored after treatment. […]

SUM159 cells = test: MTT cell viability assay, SUM 159; format: cell-based; conditions: Homo sapiens, 48 hrs, read-out: IC50 (number of live cells)
Description: (§1) FIG. 9. Echinomycin reduced the number of live breast cancer cells in vitro. Breast cancer cells with high (SUM 159) or low (MCF7) levels of HIF-1α were treated with various concentrations of echinomycin in vitro. The correlation between echinomycin concentration and relative proportions of surviving cells after co-culturing with echinomycin is shown. SUM 159 cells with high HIF-1α are more sensitive to echinomycin than MCF7, which express less HIF-1α.
(§2) To better understand the importance of high HIF-1α expression in breast cancer cells, the ability of echinomycin to reduce survival of breast cancer cells was tested in two breast cancer cell lines, MCF7 and SUM 159. More specifically, MCF7 and SUM 159 were treated with different concentrations of echinomycin for 48 hrs, followed by MTT assays to measure cell viability thereafter.

MCF7 cells = test: MTT cell viability assay, MCF7; format: cell-based, human; conditions: 48 hrs, compared with SUM159
Description: as §1, §2

[5] = test system: SUM159 breast cancer cells; test: SUM159 breast cancer xenograft efficacy; format: in vivo, NSG mice; conditions: 0.1 mg/kg i.v. once every 3 days, 6 doses
Description: FIG. 11. Therapeutic effect of liposomal echinomycin on breast cancer in vivo. (Panel A) Female NSG mice were xenografted with human SUM159 breast cancer cells and treated with free echinomycin or vehicle (n=10 per group). Mice received 0.1 mg/kg of free echinomycin or vehicle via i.v. injection once every 3 days starting on day 28 for a total of 6 doses. Growth kinetics of SUM159 are shown. (Panel B) Female NSG mice were xenografted with SUM159 breast cancer cells and treated with liposomal echinomycin or vehicle (n=5 per group). The growth kinetics of SUM159 in recipient mice treated with vehicle and liposomal echinomycin are shown. Mice received 0.35 mg/kg of liposomal echinomycin or vehicle by i.v. injection on days 9, 11, 13, 25 and 27. Average tumor volume was recorded throughout the experiment. Error bars represent ±SEM. Individual treatments and dosage are denoted by asterisks. (Panel C) Mice were euthanized, and tumors were dissected and photographed. […] Weight is expressed as average weight ±s.d., P value was calculated by t test.
To test the therapeutic efficacy of free echinomycin (in PBS), Lipo-EM, and vehicle in breast cancer cells in vivo, SUM159 cells were xenografted in the mammary fat pad of NOD-SCID mice. […] In addition, Growth kinetics of the transplanted tumors were measured by volume (FIG. 11, panel B) and by weight (FIG. 11, panel C and panel D). […]

[6] = cited from earlier work

CS[C@H]1SC[C@H]2C(=O)N(C)[C@@H](C(C)C)C(=O)OC[C@@H](NC(=O)c3cnc4ccccc4n3)C(=O)N[C@@H](C)C(=O)N(C)[C@@H]1C(=O)N(C)[C@@H](C(C)C)C(=O)OC[C@@H](NC(=O)c1cnc3ccccc3n1)C(=O)N[C@@H](C)C(=O)N2C [free echinomycin, Echinomycin]
survival (in words) [1]: died within a week | LD50 [2]: 0.629 mg/kg | time point at which plasma concentration >1 ng/ml is achieved (only) [3]: 15 min | time point at which tumor concentration >5 ng/g is achieved (only) [4]: 2 h | growth of ETP-ALL-1 cells in recipients (comparison study) (human ETP-ALL-1 cells): did inhibit the growth rate of ETP-ALL-1 cells | IC50 (SUM159 cells): 1 nM | sensitivity to echinomycin (MCF7 cells): less sensitive | tumor size vs vehicle control [5]: no significant differences in tumor size | solubility in ethanol, alkalis, ketones, acetic acid and chloroform [6]: soluble | solubility in water ([6]; water): insoluble
